Assay results: patent publication US5462927A, “Peptides aiding nerve regeneration” (The Administrators of the Tulane Educational Fund, priority 1992, dated 1995)
Like-named read-outs stand apart in the source and are kept apart here. Square brackets hold non-standard residues; d marks the D form. Peptide text beside a SMILES is read from it.

Experiments:
Type in all cases: in vivo, rat
[1] = tested on: crushed peroneal nerve; endplates of the EDL; test: Endplate morphology of EDL muscle after peroneal nerve crush (silver-cholinesterase stain)
Procedure: The effect of BIM-22015 regeneration of the crushed peroneal nerve in the rat was assessed using both morphological and physiological studies, as follows. Both locomotor pattern and endplate morphology during the early stages of crushed nerve regeneration were assessed after treatment with BIM-220150 Adult Sprague-Dawley male rats (Taconic Farms) were maintained at 25° C. on a 12 hour light and a 12 hour dark cycle and were supplied with standard rat chow and water ad lib. All surgery was performed under anesthesia with 8% chlorohydrate (0.6 ml/100 g I.P.). Denervation was accomplished using a #5 Dumont forceps with a uniformly filed tip to crush the peroneal nerve. This crush produced a 1 mm wide lesion just proximal to the EDL (extention digitarum longus) muscle. The wound was closed with surgical staples. Following surgery, the animal was immediately administered saline or BIM-22015 in one of the following dosages: (1) 0.9% saline, (2) 10.0 ug BIM-22015, (3) 5.0 ug BIM-22015, (3) 1.0 ug BIM-22015, or (4) 0.1 ug BIM-22015 (per animal). Administration continued once every 48 hours for 5 days; on day 5, the rats were killed and tissues taken for morphological analysis. All injections and surgeries occurred between 10:00 and 12:00 noon.
Morphological studies of crushed nerve regeneration were performed as follows. On day 5, the rats were anesthetized with 8% chlorohydrate (0.6 ml/100 g IP) before surgery. The animal was placed ventral side down and a skin incision was made on the hindlimb from the lateral epicondyle of the femur to the lateral malleolus in the ankle. The extensor digitorium longus muscle (EDL) was then carefully exposed from its surrounding connective tissue and extreme care taken to preserve the blood supply. The EDL is a heterogenous muscle consisting of both fast white muscle fibers and slow red muscle fibers. It is classified as a fast muscle based upon its isometric twitch parameters. The origin of the EDL is the epicondyle of the femur to the distal tendon which divides into four parts with insertions into the third phalange base of the second to the fifth digits. It is innervated by the peroneal nerve and its blood is supplied by the anterior tibial artery. The muscle was prepared for staining as follows.
The silver-cholinesterase method of staining of Pecot-Dechavssine et al. (1979 Stain. Technol. 54:25) was used to stain the endplates, or neuromuscular junctions, of the EDL. Briefly, the muscle was fixed in situ by 1% neutral formalin in normal Ringer's solution. The muscle was then excised and placed in fresh 1% neutral formalin solution for extra 3-4 minutes. The endplates were localized with the stain described by Karnovsky et al. (1964, J. Hist. Chem. Cytochem. 12:219) for 7-15 minutes under visual control. After localization, the EDL was soaked in 5% neutral formalin solution for 20 minutes, then washed in Triton X-100 detergent for 1 hour. After the detergent step, the EDL was fixed in 80% ethanol solution for 1 hour. Finally, the endplates were impregnated with silver using 0.5% protargol solution overnight (12-30 hrs., at 37° C.).
The following day, the excess silver was reduced using a Bodian developer for 18 minutes. The muscle was rinsed in distilled water, finely teased, and mounted using a glycoglyerol mounting gel.
The endplates were observed using Olympus BH series binocular microscope at a magnification of 100× using an oil immersion objective lens. A low light sensitive video camera mounted on top of the Olympus projected the slide onto a black and white monitor. A Bioquant image digitizer with a manual optic mouse was used to determine the following parameters: (1) endplate […], (2) endplate area, (3) endplate internal branching, and (4) muscle fiber diameter. The Bioquant statistical package was used to determine statistical differences, and the data are expressed as means and standard error of the mean. The Student's t-test and the ANOVA statistical tests were performed. […]

[2] = tested on: sectioned sciatic nerve; common extensor muscle of the finger; test: Muscle weight after sciatic nerve section; conditions: for Muscle weight Normalized to Mean Animal Weight: 35d. p.o.
[3] = tested on: sectioned sciatic nerve; common extensor muscle of the fingers; conditions: for Muscle Tetnus: Fatigue / Muscle Tetnus: Muscle Strength / Muscle Tetnus: Muscle Strength Normalized to Muscle Weight / Muscle Tetnus: Speed of Contraction / Muscle Tetnus: Speed of Relaxation / Tetanic Strength/Single Pulse Strength: 35d. p.o.p.
[4] = tested on: sectioned sciatic nerve; common extensor muscle of the finger; test: Characteristics of a single pulse of the common extensor muscle after sciatic nerve section; conditions: for Single Pulse: Contraction Time / Single Pulse: Half-Relaxation Time / Single Pulse: Latence / Single Pulse: Muscle Strength Normalized to Muscle Weight / Single Pulse: Speed of Contraction / Single Pulse: Speed of Relaxation / Single Pulse: Strength: 35d. p.o.p.
[5] = BIM 0.1 μG per animal every 48 hours, day 5, A = p < 0.025
[6] = BIM 0.1 μG per animal every 48 hours, day 5, A = p < 0.025, listed as BIM
[7] = BIM 1.0 μG per animal every 48 hours, day 5
[8] = BIM 5.0 μG per animal every 48 hours, day 5
[9] = BIM 10.0 μG per animal every 48 hours, day 5
[10] = Group 2: Tissue col 10.0 μg/0.5 ml (topical)
[11] = Group 3: Tissue col 1.1 μg/10.5 ml (topical)
[12] = Group 4: s.c. 5 μg 1 kg/day (18 days)
[13] = Group 3 (topical in tissucol, lower dose)
[14] = Group 4 (s.c. 5ug.kg.day for 18 days)

C[C@@H](N)C(=O)N[C@@H](CCC(N)=O)C(=O)N[C@@H](Cc1ccc(O)cc1)C(=O)N[C@@H](Cc1ccccc1)C(=O)N[C@@H](CCCNC(=N)N)C(=O)N[C@@H](Cc1c[nH]c2ccccc12)C(=O)NCC(N)=O [BIM-22015, D--Ala--Gln--Tyr--Phe--Arg--Trp--Gly--NH2] (H-[dA]QYFRWG-NH2)
Endplate Morphology: Muscle Fiber Diameter ([1]; BIM 0.1 μG per animal every 48 hours, day 5): 63.6(2.72) | Endplate Morphology: Internal Branching [1, 5]: significant increase | Endplate Morphology: Perimeter [1, 5]: significant increase | Endplate Morphology: Internal Branching [1, 6]: 260.5(39.2) | Endplate Morphology: Perimeter [1, 6]: 244.3(8.63) | Endplate Morphology: Internal Branching [1, 7]: 201.6(14.2) | Endplate Morphology: Perimeter [1, 7]: 231.7(5.22) | Endplate Morphology: Muscle Fiber Diameter ([1]; BIM 1.0 μG per animal every 48 hours, day 5, C = p < 0.005): high muscle hypertrophy | Endplate Morphology: Muscle Fiber Diameter ([1]; BIM 1.0 μG per animal every 48 hours, day 5, C = p < 0.005, listed as BIM): 76.9(1.70) | Endplate Morphology: Internal Branching [1, 8]: 220.2(18.7) | Endplate Morphology: Muscle Fiber Diameter [1, 8]: 74.2(2.35) | Endplate Morphology: Perimeter ([1]; BIM 5.0 μG per animal every 48 hours, day 5, B = p < 0.050): significant increase | Endplate Morphology: Perimeter ([1]; BIM 5.0 μG per animal every 48 hours, day 5, B = p < 0.050, listed as BIM): 204.2(5.98) | Endplate Morphology: Internal Branching [1, 9]: 173.2(14.6) | Endplate Morphology: Perimeter [1, 9]: 231.7(12.2) | Endplate Morphology: Muscle Fiber Diameter ([1]; BIM 10.0 μG per animal every 48 hours, day 5, C = p < 0.005): high muscle hypertrophy | Endplate Morphology: Muscle Fiber Diameter ([1]; BIM 10.0 μG per animal every 48 hours, day 5, C = p < 0.005, listed as BIM): 82.8(3.74) | Muscle Weight 35d. p.o. [2, 10]: 67.9 µg | Muscle weight Normalized to Mean Animal Weight [2, 10]: 0.211 | Muscle Weight 35d. p.o. [2, 11]: 59.7 µg | Muscle weight Normalized to Mean Animal Weight [2, 11]: 0.212 | Muscle Weight 35d. p.o. [2, 12]: 73.1 µg | Muscle weight Normalized to Mean Animal Weight [2, 12]: 0.226 | improvement of muscle weight normalized to mean animal weight over the control group 1 ([2]; group 4 (s.c. administration), not statistically significant): 15% | improvement of muscle weight normalized to mean animal weight over the control group 1 ([2]; groups 2 and 3 (topical in tissucol)): little improvement | effect on muscle measurements by route of administration ([2]; topical administration (groups 2 and 3)): largely ineffective | Muscle Tetnus: Fatigue ([3]; Group 2 (topical in tissucol)): 73,80% | Muscle Tetnus: Muscle Strength ([3]; Group 2 (topical in tissucol)): 61,83 g | Muscle Tetnus: Muscle Strength Normalized to Muscle Weight ([3]; Group 2 (topical in tissucol)): 0,91 g/ug | Muscle Tetnus: Speed of Contraction ([3]; Group 2 (topical in tissucol)): 2409 g/ms | Muscle Tetnus: Speed of Relaxation ([3]; Group 2 (topical in tissucol)): 2034 g/ms | Tetanic Strength/Single Pulse Strength ([3]; Group 2 (topical in tissucol)): 307,50% | Muscle Tetnus: Fatigue [3, 13]: 75,55% | Muscle Tetnus: Muscle Strength [3, 13]: 51,55 g | Muscle Tetnus: Muscle Strength Normalized to Muscle Weight [3, 13]: 0,84 g/ug | Muscle Tetnus: Speed of Contraction [3, 13]: 1737 g/ms | Muscle Tetnus: Speed of Relaxation [3, 13]: 884 g/ms | Tetanic Strength/Single Pulse Strength [3, 13]: 343,00% | Muscle Tetnus: Fatigue [3, 14]: 72,12% | Muscle Tetnus: Speed of Contraction [3, 14]: 5507 g/ms | Muscle Tetnus: Speed of Relaxation [3, 14]: 4226 g/ms | Tetanic Strength/Single Pulse Strength [3, 14]: 347,12% | fatigability of the muscle ([3]; rat, in vivo): no effect | improvement of muscle strength over control group 1 (column 2, Table 3) ([3]; rat, in vivo, sc): 30% | Single Pulse: Contraction Time ([4]; Group 2 (topical in tissucol)): 28.86 ms | Single Pulse: Half-Relaxation Time ([4]; Group 2 (topical in tissucol)): 64.69 ms | Single Pulse: Latence ([4]; Group 2 (topical in tissucol)): 9.93 ms | Single Pulse: Muscle Strength Normalized to Muscle Weight ([4]; Group 2 (topical in tissucol)): 0.30 g/µg | Single Pulse: Speed of Contraction ([4]; Group 2 (topical in tissucol)): 2419 g/ms | Single Pulse: Speed of Relaxation ([4]; Group 2 (topical in tissucol)): 514 g/ms | Single Pulse: Strength ([4]; Group 2 (topical in tissucol)): 20.03 g | Single Pulse: Contraction Time [4, 13]: 16.37 ms | Single Pulse: Half-Relaxation Time [4, 13]: 40.93 ms | Single Pulse: Latence [4, 13]: 7.65 ms | Single Pulse: Muscle Strength Normalized to Muscle Weight [4, 13]: 0.25 g/µg | Single Pulse: Speed of Contraction [4, 13]: 2939 g/ms | Single Pulse: Speed of Relaxation [4, 13]: 593 g/ms | Single Pulse: Strength [4, 13]: 14.96 g | Single Pulse: Contraction Time [4, 14]: 27.68 ms | Single Pulse: Half-Relaxation Time [4, 14]: 60.72 ms | Single Pulse: Latence [4, 14]: 9.48 ms | Single Pulse: Speed of Contraction [4, 14]: 2420 g/ms | Single Pulse: Speed of Relaxation [4, 14]: 635 g/ms | Single Pulse: Strength [4, 14]: 26.45 g | improvement of muscle strength over control group 1 (column 1, Table 4) ([4]; Group 4 (s.c.), p=0.05): 28% | improvement of speed of muscle contraction compared to group 1 (column 3, Table 4) ([4]; group 4 (s.c.), p=0.01): 300% | speed of relaxation compared to group 1 (column 4, Table 4) ([4]; printed as group 5): dramatically improved
